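48-hour exposure; five concentrations; linearly interpolated endpoints. Abbreviation: GI50, concentration required for 50% inhibition of growth.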 The source made the active and inactive calls. Rule as the data show it: active = GI50 up to about 1.1 µM and inactive = higher.
Legend:
Test in all cases: inhibition of tumour cell growth, NCI panel, 48 h
786-0 = system: 786-0
ACHN = system: ACHN
CAKI-1 = system: CAKI-1
K562 = system: K562
KM12 = system: KM12
LOX IMVI = system: LOX IMVI
MDA-MB-231 = system: MDA-MB-231
MDA-MB-435 = system: MDA-MB-435
Malme-3M = system: Malme-3M
NCI/ADR-RES = system: NCI/ADR-RES
OVCAR-4 = system: OVCAR-4
PC-3 = system: PC-3
RXF 393 = system: RXF 393
SF-539 = system: SF-539
SK-MEL-2 = system: SK-MEL-2
SNB-19 = system: SNB-19
UO-31 = system: UO-31
NCI-H226 = system: NCI-H226
SR = system: SR

Measured: GI50

O=C(O)c1ccccc1C(=O)Nc1cc2c(cc1Br)-c1ccccc1C2=O
inactive: 786-0 > 100 µM | ACHN > 100 µM | CAKI-1 > 100 µM | K562 > 100 µM | KM12 > 100 µM | LOX IMVI 81.1 µM | MDA-MB-231 > 100 µM | MDA-MB-435 > 100 µM | Malme-3M > 100 µM | NCI/ADR-RES > 100 µM | OVCAR-4 > 100 µM | PC-3 > 100 µM | RXF 393 48 µM | SF-539 > 100 µM | SK-MEL-2 > 100 µM | SNB-19 > 100 µM | UO-31 > 100 µM

CC(=O)ONC(C(=O)C(C)(C)C)C(=O)C(C)(C)C
inactive: 786-0 > 100 µM | ACHN > 100 µM | CAKI-1 > 100 µM | K562 > 100 µM | KM12 > 100 µM | LOX IMVI > 100 µM | MDA-MB-231 > 100 µM | Malme-3M > 100 µM | NCI-H226 > 100 µM | NCI/ADR-RES > 100 µM | OVCAR-4 > 100 µM | PC-3 > 100 µM | RXF 393 > 100 µM | SF-539 > 100 µM | SK-MEL-2 > 100 µM | SNB-19 > 100 µM | UO-31 > 100 µM

CCOC(=O)c1ccc(-n2nnc(C(N)=O)c2O)cc1
inactive: 786-0 > 100 µM | ACHN > 100 µM | CAKI-1 > 100 µM | K562 > 100 µM | KM12 > 100 µM | MDA-MB-231 > 100 µM | MDA-MB-435 > 100 µM | Malme-3M > 100 µM | NCI-H226 > 100 µM | NCI/ADR-RES > 100 µM | OVCAR-4 > 100 µM | PC-3 > 100 µM | RXF 393 > 100 µM | SK-MEL-2 > 100 µM | SNB-19 > 100 µM | UO-31 > 100 µM

c1ccc(-c2cc(-c3cccs3)c(-c3cccs3)s2)cc1
inactive: 786-0 50 µM | ACHN 70.5 µM | CAKI-1 26.4 µM | KM12 14.9 µM | MDA-MB-231 29.9 µM | MDA-MB-435 27.1 µM | NCI-H226 > 100 µM | NCI/ADR-RES 41.4 µM | OVCAR-4 14.3 µM | RXF 393 16.6 µM | SF-539 > 100 µM | SR 18.9 µM | UO-31 26.2 µM

O=C(O)CC(Sc1ccccc1)c1ccccc1 (stereo not given)
inactive: 786-0 > 100 µM | ACHN > 100 µM | CAKI-1 > 100 µM | K562 > 100 µM | KM12 > 100 µM | LOX IMVI > 100 µM | MDA-MB-231 > 100 µM | MDA-MB-435 > 100 µM | Malme-3M > 100 µM | NCI-H226 > 100 µM | NCI/ADR-RES > 100 µM | OVCAR-4 > 100 µM | PC-3 > 100 µM | RXF 393 > 100 µM | SK-MEL-2 > 100 µM | SNB-19 > 100 µM | UO-31 > 100 µM

CCC(C)[C@H](NC(=O)N[C@H](C)c1ccccc1)C(=O)OC (stereo not given in full)
inactive: 786-0 > 100 µM | ACHN > 100 µM | CAKI-1 > 100 µM | K562 > 100 µM | KM12 > 100 µM | LOX IMVI > 100 µM | MDA-MB-231 > 100 µM | MDA-MB-435 > 100 µM | NCI-H226 > 100 µM | OVCAR-4 > 100 µM | PC-3 > 100 µM | SF-539 25.8 µM | SK-MEL-2 > 100 µM | SNB-19 > 100 µM | SR > 100 µM | UO-31 > 100 µM

CCOC(=O)C1(C(=O)OCC)CC(=O)[C@@]2(C1)OCC[C@H]1OC(=O)C[C@H]12
inactive: 786-0 > 100 µM | ACHN > 100 µM | CAKI-1 > 100 µM | KM12 > 100 µM | LOX IMVI > 100 µM | MDA-MB-231 > 100 µM | MDA-MB-435 > 100 µM | Malme-3M > 100 µM | NCI/ADR-RES > 100 µM | OVCAR-4 > 100 µM | PC-3 > 100 µM | SF-539 > 100 µM | SK-MEL-2 > 100 µM | SNB-19 > 100 µM | SR > 100 µM | UO-31 > 100 µM

O=c1c(C(c2ccc(/C=C/c3ccccc3)cc2)c2c(O)oc3ccccc3c2=O)c(O)oc2ccccc12
inactive: 786-0 24.4 µM | ACHN 18.8 µM | CAKI-1 23 µM | K562 > 100 µM | KM12 23 µM | LOX IMVI 25.8 µM | MDA-MB-231 28.7 µM | MDA-MB-435 29 µM | Malme-3M 21.6 µM | NCI-H226 28.2 µM | NCI/ADR-RES 24.9 µM | OVCAR-4 35.6 µM | PC-3 40.2 µM | SK-MEL-2 34.8 µM | SNB-19 46.9 µM | UO-31 18.6 µM

NC(C(=O)OC(=O)c1ccccc1)C(=O)OC(=O)c1ccccc1
inactive: 786-0 > 100 µM | ACHN > 100 µM | CAKI-1 > 100 µM | K562 > 100 µM | KM12 > 100 µM | LOX IMVI > 100 µM | MDA-MB-231 > 100 µM | MDA-MB-435 > 100 µM | Malme-3M > 100 µM | NCI-H226 > 100 µM | NCI/ADR-RES > 100 µM | OVCAR-4 > 100 µM | PC-3 > 100 µM | RXF 393 > 100 µM | SF-539 > 100 µM | SK-MEL-2 > 100 µM | SNB-19 > 100 µM | UO-31 > 100 µM

NN/C(=N\c1ccc(Cl)cc1)NS(=O)(=O)c1ccc(S(=O)(=O)c2ccccc2)s1
inactive: 786-0 21.4 µM | ACHN 16.8 µM | CAKI-1 27.7 µM | K562 10.9 µM | KM12 9.79 µM | LOX IMVI 15.3 µM | MDA-MB-231 33.3 µM | NCI-H226 40.6 µM | NCI/ADR-RES 18.5 µM | OVCAR-4 21.1 µM | PC-3 25.5 µM | RXF 393 15.5 µM | SF-539 39.4 µM | SK-MEL-2 19.1 µM | SNB-19 38.3 µM | SR 16 µM | UO-31 23.7 µM

CS(=O)(=O)c1nc(-c2cc3c(c(S(C)(=O)=O)n2)CCC3)cc2c1CCC2
inactive: 786-0 82.6 µM | ACHN > 100 µM | CAKI-1 > 100 µM | K562 > 100 µM | KM12 > 100 µM | LOX IMVI > 100 µM | MDA-MB-231 24.4 µM | MDA-MB-435 > 100 µM | NCI-H226 > 100 µM | NCI/ADR-RES > 100 µM | OVCAR-4 > 100 µM | PC-3 > 100 µM | RXF 393 33.7 µM | SF-539 > 100 µM | SK-MEL-2 > 100 µM | SNB-19 67.5 µM | UO-31 > 100 µM

OC[C@@H](O)[C@H](O)[C@@H](O)/C=N/Nc1ccc(Cl)nn1
inactive: 786-0 > 100 µM | ACHN > 100 µM | CAKI-1 > 100 µM | KM12 > 100 µM | LOX IMVI > 100 µM | MDA-MB-231 > 100 µM | MDA-MB-435 > 100 µM | Malme-3M > 100 µM | NCI/ADR-RES > 100 µM | OVCAR-4 > 100 µM | PC-3 > 100 µM | RXF 393 > 100 µM | SF-539 > 100 µM | SK-MEL-2 > 100 µM | SNB-19 > 100 µM
